As a reminder, the IC50 is the concentration that inhibits the measured activity by half. As usually defined, the EC50 is the concentration that produces a half-maximal response. The Ki is the dissociation constant of the complex between target and ligand, obtained from inhibition or displacement.

This note sets out measurements from ChEMBL document CHEMBL5096151, “Phytocannabinoid Pharmacology: Medicinal Properties of Cannabis sativa Constituents Aside from the "Big Two"” (J Nat Prod, 2021).

In experiment [1] the target is T1, Transient receptor potential cation channel subfamily V member 1 (Homo sapiens, UniProt Q8NER1). The experiment can be described thus: Agonist activity at ionomycin-stimulated TRPV1 (unknown origin) channel desensitization in presence of capsaicin.
T1 sequence (Q8NER1 whole entry): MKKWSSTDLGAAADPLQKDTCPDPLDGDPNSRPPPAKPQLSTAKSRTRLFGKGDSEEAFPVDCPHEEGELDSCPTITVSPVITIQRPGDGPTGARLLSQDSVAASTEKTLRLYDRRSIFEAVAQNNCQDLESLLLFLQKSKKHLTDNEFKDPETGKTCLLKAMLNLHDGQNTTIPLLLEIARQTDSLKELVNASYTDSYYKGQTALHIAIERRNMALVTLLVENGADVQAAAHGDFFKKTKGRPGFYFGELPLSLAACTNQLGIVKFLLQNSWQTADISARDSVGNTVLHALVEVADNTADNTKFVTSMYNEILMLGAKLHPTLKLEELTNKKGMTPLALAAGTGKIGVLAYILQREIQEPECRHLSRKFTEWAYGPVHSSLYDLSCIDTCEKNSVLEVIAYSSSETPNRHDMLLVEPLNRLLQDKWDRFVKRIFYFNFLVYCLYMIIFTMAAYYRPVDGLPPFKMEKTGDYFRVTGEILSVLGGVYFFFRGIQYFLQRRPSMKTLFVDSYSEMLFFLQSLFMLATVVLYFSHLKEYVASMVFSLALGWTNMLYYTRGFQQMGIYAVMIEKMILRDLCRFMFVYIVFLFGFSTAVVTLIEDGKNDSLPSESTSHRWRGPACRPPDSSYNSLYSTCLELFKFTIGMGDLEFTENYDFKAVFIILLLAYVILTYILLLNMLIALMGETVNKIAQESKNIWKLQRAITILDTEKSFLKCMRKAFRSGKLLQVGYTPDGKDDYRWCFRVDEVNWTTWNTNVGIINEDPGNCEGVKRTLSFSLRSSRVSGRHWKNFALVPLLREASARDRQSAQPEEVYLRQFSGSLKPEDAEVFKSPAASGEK
Experiment [2] addresses T2, Transient receptor potential cation channel subfamily V member 3 (Homo sapiens, UniProt Q8NET8).
T2 sequence (Q8NET8 whole entry): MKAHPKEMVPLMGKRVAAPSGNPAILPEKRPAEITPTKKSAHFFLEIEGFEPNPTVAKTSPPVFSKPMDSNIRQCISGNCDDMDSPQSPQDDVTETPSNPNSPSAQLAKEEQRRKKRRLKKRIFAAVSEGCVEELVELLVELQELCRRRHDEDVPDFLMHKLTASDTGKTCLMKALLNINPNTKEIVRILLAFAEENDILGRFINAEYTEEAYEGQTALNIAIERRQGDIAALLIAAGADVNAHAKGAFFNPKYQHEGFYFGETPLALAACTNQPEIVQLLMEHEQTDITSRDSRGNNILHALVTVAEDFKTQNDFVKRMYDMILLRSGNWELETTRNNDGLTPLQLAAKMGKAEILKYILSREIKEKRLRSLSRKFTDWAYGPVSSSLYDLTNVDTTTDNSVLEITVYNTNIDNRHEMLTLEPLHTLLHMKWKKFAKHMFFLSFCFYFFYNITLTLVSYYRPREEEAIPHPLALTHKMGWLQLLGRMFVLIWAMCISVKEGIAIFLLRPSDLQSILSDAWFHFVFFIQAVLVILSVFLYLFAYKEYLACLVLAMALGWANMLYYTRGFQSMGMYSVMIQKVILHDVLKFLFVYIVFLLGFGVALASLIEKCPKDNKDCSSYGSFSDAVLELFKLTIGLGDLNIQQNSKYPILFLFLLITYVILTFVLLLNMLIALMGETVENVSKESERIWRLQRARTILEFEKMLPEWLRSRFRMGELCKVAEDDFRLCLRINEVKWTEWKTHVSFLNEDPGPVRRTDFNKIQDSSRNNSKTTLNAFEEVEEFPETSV
The experiment can be described thus: Agonist activity at ionomycin-stimulated TRPV3 (unknown origin) channel desensitization in presence of carvacrol.

In experiment [3] the target is T3, Transient receptor potential cation channel subfamily A member 1 (Homo sapiens, UniProt O75762). Briefly: Agonist activity at TRPA1 (unknown origin) channel desensitization in presence of isothiocyanate.
T3 sequence (O75762 whole entry): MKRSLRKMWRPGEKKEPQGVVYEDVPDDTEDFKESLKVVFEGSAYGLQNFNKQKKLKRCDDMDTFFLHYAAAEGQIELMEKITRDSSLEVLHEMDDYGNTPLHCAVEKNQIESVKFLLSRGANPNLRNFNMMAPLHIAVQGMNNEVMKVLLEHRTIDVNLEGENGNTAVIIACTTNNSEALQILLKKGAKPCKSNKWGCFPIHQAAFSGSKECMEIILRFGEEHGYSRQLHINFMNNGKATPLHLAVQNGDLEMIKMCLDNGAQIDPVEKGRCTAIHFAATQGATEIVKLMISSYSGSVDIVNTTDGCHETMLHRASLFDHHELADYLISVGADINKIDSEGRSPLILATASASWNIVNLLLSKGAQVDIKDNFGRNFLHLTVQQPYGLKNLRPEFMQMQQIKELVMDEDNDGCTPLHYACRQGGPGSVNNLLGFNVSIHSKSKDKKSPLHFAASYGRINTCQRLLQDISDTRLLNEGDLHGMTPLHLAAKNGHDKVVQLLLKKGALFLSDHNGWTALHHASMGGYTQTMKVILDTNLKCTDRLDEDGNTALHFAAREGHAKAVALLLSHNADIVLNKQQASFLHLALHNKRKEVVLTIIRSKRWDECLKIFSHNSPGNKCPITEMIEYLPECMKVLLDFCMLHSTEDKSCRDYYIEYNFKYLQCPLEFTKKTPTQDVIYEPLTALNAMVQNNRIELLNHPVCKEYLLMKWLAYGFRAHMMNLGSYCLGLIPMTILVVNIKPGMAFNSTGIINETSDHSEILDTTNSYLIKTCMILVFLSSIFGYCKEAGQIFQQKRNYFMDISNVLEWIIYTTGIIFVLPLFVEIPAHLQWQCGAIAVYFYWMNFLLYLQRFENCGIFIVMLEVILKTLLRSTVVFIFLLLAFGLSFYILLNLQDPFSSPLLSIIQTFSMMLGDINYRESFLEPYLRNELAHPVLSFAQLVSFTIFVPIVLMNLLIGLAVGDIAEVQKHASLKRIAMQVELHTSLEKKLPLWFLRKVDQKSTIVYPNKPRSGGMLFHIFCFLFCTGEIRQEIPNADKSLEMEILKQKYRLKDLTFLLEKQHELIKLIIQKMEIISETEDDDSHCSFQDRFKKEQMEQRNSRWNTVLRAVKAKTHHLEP
The target of experiment [4] is T4, Transient receptor potential cation channel subfamily V member 2 (Homo sapiens, UniProt Q9Y5S1).
T4 sequence (Q9Y5S1 whole entry): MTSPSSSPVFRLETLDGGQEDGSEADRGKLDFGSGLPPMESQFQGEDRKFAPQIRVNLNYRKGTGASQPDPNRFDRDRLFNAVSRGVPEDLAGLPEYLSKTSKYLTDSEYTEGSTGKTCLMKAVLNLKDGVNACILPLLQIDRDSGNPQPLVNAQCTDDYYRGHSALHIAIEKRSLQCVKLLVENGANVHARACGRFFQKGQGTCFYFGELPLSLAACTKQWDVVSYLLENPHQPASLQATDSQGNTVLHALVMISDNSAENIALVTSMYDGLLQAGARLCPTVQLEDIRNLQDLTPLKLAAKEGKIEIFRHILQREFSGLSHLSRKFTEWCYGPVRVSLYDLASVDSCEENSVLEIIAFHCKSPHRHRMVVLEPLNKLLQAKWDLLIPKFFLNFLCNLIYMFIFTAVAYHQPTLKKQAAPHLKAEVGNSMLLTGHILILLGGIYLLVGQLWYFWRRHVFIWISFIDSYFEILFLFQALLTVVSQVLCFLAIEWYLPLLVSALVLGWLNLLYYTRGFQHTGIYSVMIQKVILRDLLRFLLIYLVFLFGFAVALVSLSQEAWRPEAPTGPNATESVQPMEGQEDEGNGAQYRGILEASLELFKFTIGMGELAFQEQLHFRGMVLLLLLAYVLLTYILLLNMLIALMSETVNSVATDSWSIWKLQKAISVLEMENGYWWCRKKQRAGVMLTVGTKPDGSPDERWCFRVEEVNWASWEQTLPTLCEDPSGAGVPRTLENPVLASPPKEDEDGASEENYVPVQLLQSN
The experiment can be described thus: Agonist activity at ionomycin-stimulated TRPV2 (unknown origin) activation.

Experiment [5] concerns the target T5, Cytochrome P450 2C19 (Homo sapiens, UniProt P33261). The experiment can be described thus: Mixed inhibition of CYP2C19 (unknown origin). The experiment is classed as ADME.
In experiment [6] the target is T5, Cytochrome P450 2C19. Briefly: Mixed inhibition of CYP2C19 (unknown origin) by measuring inhibition constant. In kind it is ADME.
In experiment [7] the target is T3, Transient receptor potential cation channel subfamily A member 1. Briefly: Agonist activity at TRPA1 (unknown origin) activation assessed as efficacy relative to control. The note with it: filed as agonist.
Experiment [8] addresses T1, Transient receptor potential cation channel subfamily V member 1. Briefly: Agonist activity at ionomycin-stimulated TRPV1 (unknown origin) activation.
The target of experiment [9] is T6, G-protein coupled receptor 55 (Homo sapiens, UniProt Q9Y2T6). Briefly: Binding affinity to human GPR55 expressed in HEK293 cells assessed as LPI-stimulated ERK1/2 phosphorylation. The experiment is classed as cell-based.
T6 sequence (Q9Y2T6 whole entry): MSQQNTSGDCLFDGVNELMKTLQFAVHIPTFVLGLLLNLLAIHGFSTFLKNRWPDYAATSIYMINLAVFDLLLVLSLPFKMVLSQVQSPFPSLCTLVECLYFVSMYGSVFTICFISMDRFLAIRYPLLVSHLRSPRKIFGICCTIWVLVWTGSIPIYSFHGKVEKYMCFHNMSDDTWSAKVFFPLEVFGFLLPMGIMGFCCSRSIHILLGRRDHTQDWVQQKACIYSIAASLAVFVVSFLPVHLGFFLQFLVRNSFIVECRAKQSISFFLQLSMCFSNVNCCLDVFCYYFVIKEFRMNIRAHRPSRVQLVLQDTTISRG
Experiment [10] deals with T7, Transient receptor potential cation channel subfamily V member 3 (Homo sapiens) (UniProt Q8NET8).
T7 sequence (whole entry): T2 sequence (Q8NET8 whole entry)
Briefly: Agonist activity at ionomycin-stimulated TRPV3 (unknown origin) activation assessed as efficacy relative to control.

The target in the next experiment is T8, Cytochrome P450 2B6 (Homo sapiens, UniProt P20813).
T8 sequence (P20813 whole entry): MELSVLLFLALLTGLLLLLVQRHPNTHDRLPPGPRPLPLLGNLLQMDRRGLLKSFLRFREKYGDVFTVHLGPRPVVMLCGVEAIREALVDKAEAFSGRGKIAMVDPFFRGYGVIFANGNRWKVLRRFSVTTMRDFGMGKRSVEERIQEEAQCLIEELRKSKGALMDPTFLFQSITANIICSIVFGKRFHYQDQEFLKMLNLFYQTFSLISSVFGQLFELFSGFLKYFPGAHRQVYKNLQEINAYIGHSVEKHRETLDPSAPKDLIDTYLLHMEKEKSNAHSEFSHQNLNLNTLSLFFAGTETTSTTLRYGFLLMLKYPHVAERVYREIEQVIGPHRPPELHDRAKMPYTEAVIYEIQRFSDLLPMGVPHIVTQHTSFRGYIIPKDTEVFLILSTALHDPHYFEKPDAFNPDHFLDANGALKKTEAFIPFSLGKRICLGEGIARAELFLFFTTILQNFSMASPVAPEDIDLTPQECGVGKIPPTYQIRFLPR
Briefly: Mixed inhibition of recombinant CYP2B6 (unknown origin) using coumarin as substrate in presence of NADPH-generating system by Lineweaver-burk plots analysis. The experiment is classed as ADME.

Experiment [11] has as its target T6, G-protein coupled receptor 55. The experiment can be described thus: Binding affinity to human GPR55 expressed in HEK293 cells assessed as LPI-stimulated ERK1/2 phosphorylation by measuring efficacy relative to control. In kind it is cell-based.
The next experiment addresses Cytochrome P450 1A1 (Homo sapiens, UniProt P04798). Briefly: Inhibition of recombinant CYP1A1 (unknown origin) preincubated with NADPH for 20 mins and measured after 30 min. The experiment is classed as ADME.

The structures appear in SMILES notation.

T5 sequence (P33261 whole entry): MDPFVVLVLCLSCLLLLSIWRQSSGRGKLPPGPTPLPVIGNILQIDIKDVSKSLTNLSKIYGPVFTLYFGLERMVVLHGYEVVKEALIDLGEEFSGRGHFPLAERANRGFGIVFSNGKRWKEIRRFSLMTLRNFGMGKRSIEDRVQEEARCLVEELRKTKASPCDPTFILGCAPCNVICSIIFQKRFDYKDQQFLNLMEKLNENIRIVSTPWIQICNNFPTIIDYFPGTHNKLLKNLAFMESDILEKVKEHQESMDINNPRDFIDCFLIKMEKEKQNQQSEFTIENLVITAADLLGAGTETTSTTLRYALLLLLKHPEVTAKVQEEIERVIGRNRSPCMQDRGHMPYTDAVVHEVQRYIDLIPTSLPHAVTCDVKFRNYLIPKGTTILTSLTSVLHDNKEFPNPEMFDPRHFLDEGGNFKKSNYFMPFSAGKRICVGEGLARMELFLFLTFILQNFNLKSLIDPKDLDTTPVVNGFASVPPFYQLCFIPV
Chain of Cytochrome P450 1A1 (P04798 whole entry): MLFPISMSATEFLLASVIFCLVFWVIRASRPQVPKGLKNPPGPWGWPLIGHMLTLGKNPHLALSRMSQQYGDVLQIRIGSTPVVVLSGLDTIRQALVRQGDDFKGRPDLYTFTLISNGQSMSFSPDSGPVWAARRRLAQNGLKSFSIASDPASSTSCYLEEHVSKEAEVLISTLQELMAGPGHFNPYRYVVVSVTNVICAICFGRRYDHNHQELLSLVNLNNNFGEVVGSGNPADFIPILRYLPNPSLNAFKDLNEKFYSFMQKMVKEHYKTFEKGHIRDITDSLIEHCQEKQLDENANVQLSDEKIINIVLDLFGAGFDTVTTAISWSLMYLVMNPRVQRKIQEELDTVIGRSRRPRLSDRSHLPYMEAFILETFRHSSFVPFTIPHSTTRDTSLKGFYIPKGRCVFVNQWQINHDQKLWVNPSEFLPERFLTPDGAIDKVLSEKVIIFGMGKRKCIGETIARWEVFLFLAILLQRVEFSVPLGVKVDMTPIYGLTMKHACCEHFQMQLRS

As to `C=C(C)[C@@H]1CCC(C)=C[C@H]1c1c(O)cc(CCC)cc1O` [CANNABIDIVARIN], the IC50 is 10 µM in [1]; 25 µM in experiment [2]; 1.3 µM in [3]; 3.7 µM against Cytochrome P450 2C19 [5]; 0.06 µM at Cytochrome P450 1A1. For the same compound, the values for the EC50 in experiment [4], in experiment [8] and in experiment [9] were 7.3 µM, 3.6 µM and 0.4 µM, respectively. For the same compound, the values for the Ki at Cytochrome P450 2C19 [6] and on Cytochrome P450 2B6 were 1.4 µM and 1.3 µM, respectively. For the same compound, the Efficacy in experiment [7] stood at 105%; in experiment [10] it was 16%; in experiment [11], 49%.
